From US12042511B1, “Inhalation delivery methods and compositions for vitamin B12” (priority 2017, dated 2024) come the findings set out here.

The nature of data set [1]: B12 blood levels after inhalation of methylcobalamin solution (vaporizer/electronic cigarette). The format is in vivo, human. As to the method:
A new method for vitamin B12 supplementation involves determining that a person has a disorder causing the person to have a reduced ability to process one or more forms of B-vitamins and convert them into a usable form in the body and administering methylcobalamin to the person in aerosol form or in water vapor, for inhalation. In some embodiments, the person is determined to have a MTHFR gene mutation. In some embodiments, the methylcobalamin is administered as part of a mixture also comprising vegetable glycerin and water. In some embodiments, the determined disorder includes anemia, pernicious anemia, and/or advanced age. In some embodiments, administering methylcobalamin involves administering at least 500 mcg of methylcobalamin in one day or in one week. For example, 500 mcg of methylcobalamin may be administered in a single daily or weekly dose. Depending on the concentration of the methylcobalamin in the solution used to administer the methylcobalamin, 500 mcg of methylcobalamin may be administered in 0.01 mL or more of solution. The concentration of methylcobalamin in solution for a vaporizer/electronic cigarette application in some embodiments is 1,000 mcg/mL or higher, in preferred embodiments 2,000 mcg/mL or higher. […]

Data set [2] can be described thus: bioavailability/absorption of methylcobalamin in inhalable form compared with other forms of B12. The format is in vivo, human. Particulars: persons with a methylenetetrahydrofolate reductase (MTHFR) genetic mutation. As to the method:
When a person is determined to have MTHFR or another condition that causes the person to have a reduced ability to process B-vitamin supplements and convert them into a usable form in the body, the person may be administered methylcobalamin by inhalation for proper B12 supplementation.

Regarding `C/C1=C2/[N-][C@H]([C@H](CC(N)=O)[C@@]2(C)CCC(=O)NC[C@@H](C)OP(=O)([O-])O[C@H]2[C@@H](O)[C@@H](n3cnc4cc(C)c(C)cc43)O[C@@H]2CO)[C@]2(C)N=C(/C(C)=C3N=C(/C=C4N=C1[C@@H](CCC(N)=O)C\4(C)C)[C@@H](CCC(N)=O)[C@]\3(C)CC(N)=O)[C@@H](CCC(N)=O)[C@]2(C)CC(N)=O.[CH3-].[Co+3]` [methylcobalamin], the “levels of B12 in a user's blood” value in data set [1] (lower concentrations (below 1,000 mcg/mL) of methylcobalamin in solution) is “no effect on the user's blood levels of B12”; in data set [1] (methylcobalamin concentration in solution 1,000 mcg/mL or higher, vaporizer/electronic cigarette, immediately after treatment (within about 5 minutes) and persistently), “substantially increasing levels of B12 in a user's blood”. Further, in data set [2], the “absorption relative to other forms of B12” value is reported as “more easily absorbed than other forms of B12”.
